Data on 9 molecules can be found in publication PMC11324666, “Two novel in vitro assays to screen chemicals for their capacity to inhibit thyroid hormone transmembrane transporter proteins OATP1C1 and OAT4” (Archives of Toxicology, 2024).

Like-named read-outs stand apart in the source and are kept apart here.

One data set deals with T1, OAT4 (Homo sapiens, UniProt Q9NSA0).
T1 construct: V5 (from pLenti6/V5-DEST); expressed in transfected cells; host or cells: MDCK-1 (lentiviral transduction, blasticidin selection)
T1 sequence (Q9NSA0 1-550): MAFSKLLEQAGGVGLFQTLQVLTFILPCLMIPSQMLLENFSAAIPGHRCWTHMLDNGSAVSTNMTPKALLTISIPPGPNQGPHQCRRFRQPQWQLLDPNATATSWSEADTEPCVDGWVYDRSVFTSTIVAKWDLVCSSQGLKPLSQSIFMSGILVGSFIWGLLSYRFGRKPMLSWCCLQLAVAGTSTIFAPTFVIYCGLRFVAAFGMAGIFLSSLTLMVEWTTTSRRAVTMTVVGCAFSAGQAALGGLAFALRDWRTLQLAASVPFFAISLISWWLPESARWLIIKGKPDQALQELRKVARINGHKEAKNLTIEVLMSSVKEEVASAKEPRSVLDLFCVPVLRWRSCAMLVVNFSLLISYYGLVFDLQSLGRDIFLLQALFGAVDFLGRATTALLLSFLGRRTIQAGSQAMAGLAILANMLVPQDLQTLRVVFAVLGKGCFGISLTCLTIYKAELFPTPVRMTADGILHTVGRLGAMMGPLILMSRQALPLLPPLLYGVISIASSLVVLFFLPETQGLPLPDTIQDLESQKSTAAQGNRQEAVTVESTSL
The data set can be described thus: MDCK-OAT4 TH uptake assay with 125I-T4 tracer. The format is cell-based. Conditions: 10 nM T4, 20 min; for 125I-T4 uptake compared to the vehicle control (range finding): single concentration 10 or 100 µM, below 80% = positive hit; for T4 uptake inhibition BMC20 (M), [CI]: concentration that inhibits 125I-T4 uptake by 20%, brackets = 95% CI. The procedure:
Subsequently OAT4 in pENTR™/D-TOPO® Vector was shuffled into the pLenti6/V5-DEST vector (Thermo Fisher) using Gateway™ LR Clonase™ II Enzyme mix (Thermo Fisher) according to the manufacture’s protocol.
To generate an OAT4 stable cell line, MDCK-1 cells were plated in 12-well plates with full growth medium and transduced with fresh viral supernatants in the absence of antibiotics in medium. After 2 days, MDCK-1 cells transduced with OAT4 (MDCK-OAT4) or empty vector (MDCK-DEST) were selected in full growth medium supplemented with 2 µg/mL blasticidin and further maintained under blasticidin selection.
(§1) MDCK-OAT4 and MDCK-DEST cells were cultured in DMEM:F12 (L-glutamine, 15 mM HEPES) (Gibco) supplemented with (100 µg/mL penicillin + 100 µg/mL streptomycin), 10% fetal calf serum (Gibco) and 2 µg/mL blasticidin (Sigma). CHO-K1 OATP1C1 or WT cells were cultured in F12 nutrient mix (Gibco) supplemented with (100 µg/mL penicillin + 100 µg/mL streptomycin), 10% fetal calf serum (Gibco) and […] G418 (Sigma). All cell cultures were incubated at 37 °C with 5% CO2 saturation until 80% confluency. MDCK-OAT4 and MDCK-DEST cells were seeded in 96 wells plate at a density of 4 × 10^5 cells in 100 µL medium per well and incubated for 24 h before the start of the MDCK-OAT4 TH uptake assay. CHO-K1 OATP1C1 and WT cells were seeded in 96 wells plate at a density of 3 × 10^5 cells in 100 µL medium per well 72 h before the CHO-K1 OATP1C1 TH uptake assay. Medium from CHO-K1 OATP1C1 or WT assay plates was changed to serum-free F12 medium containing 5 mM sodium-butyrate 24 h before start of the CHO-K1 OATP1C1 TH uptake assay to increase transfected expression of SV-40 promotor plasmids.
(§2) Subsequently 10 µL of a tenfold stock of test compound in uptake buffer (solvent concentration 1% v/v) was added to each well. […] Cells were exposed at 37 °C for 20 min (MDCK-OAT4) or 30 min (CHO-K1 OATP1C1), unless stated differently. After exposure, cells were immediately washed with ice-cold PBS supplemented with 0.1% bovine serum albumin (BSA). Subsequently, cells were lysed in 50 µL of 0.1 M NaOH under continuous shaking at room temperature. After 20 min, cell lysates were manually transferred into separate 5 mL polypropylene tubes. One tube was also prepared with 10 µL of the T4 tracer solution. Radioactivity was measured in a Wizard^2 gamma counter (Perkin Elmer).
For the CHO-K1 OATP1C1 TH uptake assay total of 29 chemicals (Table 1) were selected for the EDC screening based on available literature data. […] The same chemicals were selected for the MDCK-OAT4 TH uptake assay, with the exception of BPF, VRP and TCS. […] The THTMT TH uptake assay was then performed as described earlier. […] A concentration of 100 µM ICG was used as a reference chemical for OATP1C1 and 100 µM LESI for OAT4. At least three independent experiments were performed for each chemical. Each individual experiment contained three technical replicates of each control and concentration tested.
(§3) Raw values were normalized to the total amount of radioactivity in the T4 tracer solution. These values were expressed as a percentage of total radioactivity added (or uptake percentage) and used for all further data analysis. Statistically significant differences between the T4 uptake of transfected and wild type cells, in the presence or absence of inhibitor, were determined by two-way ANOVA (α = 5%, two-sided). […] In brief, uptake values were normalized to the median response of the vehicle and positive controls for each plate. […] Statistical analysis were performed using GraphPad Prism version 8 for Windows (GraphPad Software, San Diego, California USA) and SAS 9.3 (SAS Institute, Cary NC).

Another data set has as its system CHO-K1 OATP1C1 cells. The note with it: for cytotoxic effects: at concentrations of the uptake assay, Figure S1; for Cytotoxicity IC10: concentration that inhibits cell viability by 10%, CHO-K1 OATP1C1 cells, 30 min exposure. The protocol: (§4) Cell viability was assessed through the quantitation of ATP present in cells using the commercially available CellTiter-Glo® luminescent cell viability assay and performed according to the manufacturer’s instruction (Promega, Leiden, the Netherlands). Briefly, cells were seeded as described earlier in opaque-walled clear-bottom 96 well plates. On the day of the experiment, each well was washed with 200 µL phosphate buffered saline (PBS) and exposed to 80 µL of uptake buffer, 10 µL of a tenfold stock of test compound solved in uptake buffer or control and 10 µL of T4 (final concentration 10 nM). 0.1% DMSO was used as a solvent control, while 10% DMSO was used as a positive control. After exposure for the indicated times similar to THTMT TH uptake assay, cells were immediately washed with ice-cold PBS + 0.1%BSA and exposed to 100 µL of the CellTiter-Glo® Reagent. Plates were then shaken on an orbital shaker for 2 min and left to incubate at room temperature for 10 min. Luminescence was measured on a BioTek Cytation 5 microplate reader. […] Each individual experiment was repeated at least twice and contained three technical replicates of each control and concentration tested.
Figure S1. […] Blue dots indicate the plate medians from three or four independent experiments, all control and chemical concentrations were tested in triplicates per plate.

The target of data set [1] is T2, OATP1C1 (Homo sapiens, UniProt Q9NYB5).
T2 construct: host or cells: CHO-K1
T2 sequence (Q9NYB5 1-712): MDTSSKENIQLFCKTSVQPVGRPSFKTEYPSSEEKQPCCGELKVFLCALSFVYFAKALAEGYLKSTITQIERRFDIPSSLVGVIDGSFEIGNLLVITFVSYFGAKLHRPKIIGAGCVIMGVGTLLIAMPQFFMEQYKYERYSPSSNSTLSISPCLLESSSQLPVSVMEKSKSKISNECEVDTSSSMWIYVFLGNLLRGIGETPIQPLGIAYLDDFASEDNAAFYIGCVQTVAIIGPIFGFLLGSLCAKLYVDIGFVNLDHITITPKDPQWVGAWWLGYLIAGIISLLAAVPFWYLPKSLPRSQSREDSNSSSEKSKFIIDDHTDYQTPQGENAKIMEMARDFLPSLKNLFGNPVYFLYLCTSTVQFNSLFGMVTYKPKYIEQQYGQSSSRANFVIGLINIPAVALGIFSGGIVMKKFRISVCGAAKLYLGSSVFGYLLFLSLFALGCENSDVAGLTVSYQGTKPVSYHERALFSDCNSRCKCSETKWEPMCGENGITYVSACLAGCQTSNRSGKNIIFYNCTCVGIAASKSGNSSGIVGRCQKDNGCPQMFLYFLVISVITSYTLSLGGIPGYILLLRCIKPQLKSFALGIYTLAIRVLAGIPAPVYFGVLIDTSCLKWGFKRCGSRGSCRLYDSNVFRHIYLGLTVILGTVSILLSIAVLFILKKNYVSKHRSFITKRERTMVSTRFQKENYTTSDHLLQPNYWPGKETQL
As to the kind of experiment: CHO-K1 OATP1C1 TH uptake assay with 125I-T4 tracer. In kind it is cell-based. The procedure: as §1, §2
For the CHO-K1 OATP1C1 TH uptake assay total of 29 chemicals (Table 1) were selected for the EDC screening based on available literature data. […] The same chemicals were selected for the MDCK-OAT4 TH uptake assay, with the exception of BPF, VRP and TCS. […] The THTMT TH uptake assay was then performed as described earlier. […] A concentration of 100 µM ICG was used as a reference chemical for OATP1C1 and 100 µM LESI for OAT4. At least three independent experiments were performed for each chemical.
as §3

A further data set relates to MDCK-OAT4 cells. As to the kind of experiment: CellTiter-Glo luminescent cell viability assay in MDCK-OAT4 cells. Conditions: concentration that inhibits cell viability by 10%; MDCK-OAT4 cells, 20 min exposure. The protocol: as §4
Figure S2. […] Blue dots indicate the plate medians from three or four independent experiments, all control and chemical concentrations were tested in triplicates per plate. The black line indicates the best-fit concentrations response curve, the dotted line the corresponding 95% confidence interval.

Data set [2] deals with oatp1c1. On the set-up: method as in Westholm et al. (2009). The note with it: T4 1 nM; ref Westholm et al. (2009); read-out: IC50 of T4 transmembrane transport inhibition; cited from earlier work.
Where [3] appears, read: concentration that inhibits 125I-T4 uptake by 20%, 10 nM T4, 30 min, brackets = 95% CI.

As for `O=S(=O)(c1ccc(O)cc1)c1ccc(O)cc1` [Bisphenol S, Bisphenol-S], the “125I-T4 uptake compared to the vehicle control (range finding)” value at OAT4 was ≥ 80%.
On to `Oc1cc(Cl)ccc1Oc1ccc(Cl)cc1Cl` [Triclosan], for which, in the data set on CHO-K1 OATP1C1 cells, the cytotoxic effects result is given as “confounded by cytotoxic effects” and the “Cytotoxicity IC10” value is 0.378 µM. The “T4 uptake inhibition BMC20 (M), [CI]” value at OATP1C1 [1] is 2.30E−06 [1.38E−06; 3.83E−06] M.
For the molecule “β-Estradiol-3-sulfate [ß-Estrone-3-sulfate, reference compound]”, at OAT4, the “T4 uptake inhibition BMC20 (M), [CI]” value is 1.55E−06 [5.32E−07; 4.51E−06] M and the “125I-T4 uptake compared to the vehicle control (range finding)” value is “below 80%”.
Turning to `CC(C)(c1ccc(O)cc1)c1ccc(O)cc1` [Bisphenol A, Bisphenol-A], in the data set with CHO-K1 OATP1C1 cells, the cytotoxic effects entry is listed as “confounded by cytotoxic effects” and the “Cytotoxicity IC10” value is 4.34 µM. Also, on OATP1C1 [1] (setting [3]), the “T4 uptake inhibition BMC20 (M), [CI]” value was 1.90E−05 [1.28E−05; 2.83E−05] M.
As for `NC(Cc1cc(I)c(Oc2cc(I)c(O)c(I)c2)c(I)c1)C(=O)O` (stereo not drawn) [T4, Thyroxine, reference compound], at OATP1C1 [1] (1 µM unlabeled T4), the “uptake of 125I-T4 with excess of unlabeled T4” value was “quenched the uptake”.
Take `O=C(O)CSc1nnc(Br)n1-c1ccc(C2CC2)c2ccccc12` [Lesinurad, reference compound]: the “Cytotoxicity IC10” value with CHO-K1 OATP1C1 cells and in the data set with MDCK-OAT4 cells was > 100 µM throughout. The “T4 uptake inhibition BMC20 (M), [CI]” value at OATP1C1 [1] (setting [3]) is 4.34E−07 [1.97E−07; 9.56E−07] M.
As for `Oc1ccc(C2(c3ccc(O)cc3)CCCCC2)cc1` [Bisphenol Z, Bisphenol-Z], the “Cytotoxicity IC10” value in the data set with CHO-K1 OATP1C1 cells was > 100 µM.
For `O=C(O)Cc1ccccc1Nc1c(Cl)cccc1Cl` [Diclofenac, reference compound], the 50% inhibitory concentration (IC50) with oatp1c1 [2] is 4 µM. Besides, on OAT4, the “T4 uptake inhibition BMC20 (M), [CI]” value was 3.22E−06 [6.39E−07; 1.62E−05] M.
On to `[CH3][Hg][Cl]` [MeHg, Methyl mercury], for which the “125I-T4 uptake compared to the vehicle control (range finding)” value on OAT4 is given as ≥ 80%; on OATP1C1 [1] (single concentration 10 or 100 µM, 10 nM T4, 30 min, below 80% = positive hit), ≥ 80%.

One may read the IC50 as the concentration that inhibits the measured activity by half.
